# Assay results reported in the RepoRT retention time repository.
# Experiment: RP, Waters ACQUITY UPLC BEH C18, 50 × 2.1 mm, 1.7 µm, 40 °C, 0.6 mL/min, estimated dead time 0.18 min; A: water + 0.1% formic acid, pH 3; B: acetonitrile + 0.1% formic acid, pH 3; gradient (min/%B) 0/5 7/100 8/100
# Details: stereoisomer not certain
row,SMILES,LC retention time [min]
1,COc1cc2c3cc1Oc1c(cccc1OC)CC1c4c(cc(OC)c(OC)c4Oc4cccc(c4)CC3N(C)CC2)CCN1C (stereo unspecified),1.7
2,CCC1C2CCCCN3C(C4CC(C)C(=O)O4)CC(C4C(C)C(=O)OC14)C23 (stereo unspecified),1.55
3,CC(C)=CCc1c2c(c(O)c3c1OC14C(=CC5CC1C(C)(C)OC4(CC=C(C)C(=O)O)C5=O)C3=O)C=CC(C)(C)O2 (stereo unspecified),5.38
4,"COc1c2occc2cc2ccc(=O)oc12 [9-methoxy-7H-furo[3,2-g]chromen-7-one]",2.49
5,C=C1C(=O)C23C(O)CC4C(C)(C)CCCC4(COC(C)=O)C2C(O)CC1C3O (stereo unspecified),2.42
6,C=CC12CN(C)C3C4COC(C[C@@H]41)[C@]1(C(=O)Nc4ccccc41)C32 (stereo partly specified),1.01
7,COc1ccc(C(=O)[C@@H](c2coc3cc(O)ccc3c2=O)C(c2ccc(O)cc2)c2ccc(O)cc2)c(O)c1,3.14
8,CCC(C)C(=O)C1=C(O)C2(CC=C(C)C)CC(CCC(C)(C)NC(C)=O)C(C)(C)C(C(CC(=O)O)c3ccccc3)=C2OC1=O (stereo unspecified),4.87
9,CCCCCCCCCCCCCC(=O)OC12CC(C)C3(O)C(C4OC4(CO)C(O)C4(O)C(=O)C(C)=CC43)C1C2(C)C (stereo unspecified),6.55
10,C/C=C1/CN(C)C[C@H]2Cc3c([nH]c4ccccc34)C(=O)C[C@@H]12,1.62
11,O=C1c2c(O)cc(O)c(C3C(=O)c4c(O)cc(O)cc4OC3c3ccc(O)cc3)c2OC(c2ccc(O)c(O)c2)C1O (stereo unspecified),0.319
12,C[C@@H]1O[C@@H](O[C@@H]2C(O[C@H]3CC[C@@]4(C)C(CC[C@]5(C)C4CC=C4C6CC(C)(C)CC[C@]6(C(=O)O)CC[C@]45C)[C@]3(C)CO)OC[C@@H](OC3O[C@H](CO)[C@@H](O)[C@H](O)[C@H]3O)[C@H]2O)[C@H](O)[C@H](O[C@@H]2OC[C@@H](O)[C@H](O)[C@H]2O)[C@H]1O (stereo partly specified),2.21
13,"C=CCc1ccc(O)c(-c2ccc(O)c(CC=C)c2)c1 [3',5-bis(prop-2-en-1-yl)-[1,1'-biphenyl]-2,4'-diol]",3.18
14,CC12CCC(C(OC(=O)/C=C/c3ccc(O)cc3)C1)C2(C)C (stereo unspecified),4.89
15,COc1cc2c3c(c1OC)Oc1ccc(cc1)CC1c4c(cc(OC)c(OC)c4Oc4ccc(cc4)CC3N(C)CC2)CCN1C (stereo unspecified),1.79
16,C=C1C2CCC3C4(C)CCCC(C)(C(=O)O)C4CCC3(C2)C1O (stereo unspecified),3.64
17,CCC1CN(C)CC2Cc3c([nH]c4ccccc34)C(=O)CC12 (stereo unspecified),1.71
18,CCC(O)C(/C=C1\C(=O)C=CC1(O)CCCCCCCC(=O)OC)OC(C)=O (stereo unspecified),3.08

row,SMILES,LC retention time [min]
1,CCC1C2CCCCN3CCC(C4C(C)C(=O)OC14)C23 (stereo unspecified),1.34
2,CC1CCC2(OC1)OC1CC3C4C(O)C(=O)C5(O)C(O)C(O)C(O)C(O)C5(C)C4CCC3(C)C1C2C (stereo unspecified),3.19
3,"COc1cc(CC(CO)C(CO)Cc2ccc(O)c(OC)c2)ccc1O (stereo unspecified) [2,3-bis[(4-hydroxy-3-methoxyphenyl)methyl]butane-1,4-diol]",0.28
4,COC(=O)C1=COC(C)C2CN3CCC4(C(=O)Nc5ccccc54)C3CC12 (stereo unspecified),1.69
5,CC1CC2CCCC3N4C(=O)CCCC4CC(C1)N23 (stereo unspecified),0.978
6,"Cc1coc2c1C(=O)C(=O)c1c-2ccc2c(C)cccc12 [1,6-dimethyl-10H,11H-phenanthro[1,2-b]furan-10,11-dione]",3.42
7,CCCCCCCCCCCCCCC(O)C(O)CCC(O)C1CCC(CCCCCC(O)CC2=CC(C)OC2=O)O1 (stereo unspecified),6.01
8,"COc1ccc(OC)c([N+](=O)[O-])c1/C=C/[N+](=O)[O-] [1,4-dimethoxy-2-nitro-3-[(1E)-2-nitroethenyl]benzene]",0.72
9,C[C@@H]1CC2(N=CCS2)[C@]2(O)OC3C[C@@]4(C=O)C(CCC5C4CC[C@]4(C)C(C6=CC(=O)OC6)CC(O)[C@]54O)CC3OC2O1 (stereo partly specified),0.41
10,COc1ccc(-c2oc3cc(OC)c(OC)c(O)c3c(=O)c2OC)cc1O,2.62
11,COc1cc(-c2oc3cc(OC)c(OC)c(O)c3c(=O)c2OC)ccc1O,2.66
12,C[C@@H]1CC2(NCCS2)[C@]2(O)OC3C[C@@]4(C=O)C(CCC5C4CC[C@]4(C)C(C6=CC(=O)OC6)CC(O)[C@]54O)CC3OC2O1 (stereo partly specified),0.365
13,COc1c(O)cc2c3c1C1(C=CC(=O)C=C1)CC3N(C)CC2 (stereo unspecified),0.738
14,CC(C)=CCCC(C)C12C=CC(C)(CC1)OO2 (stereo unspecified),4.96
15,COc1ccc2cc1-c1cc(ccc1O)C[C@@H]1NCCc3cc4c(cc31)Oc1c(c(OC)c(O)c3c1[C@H](C2)N(C)CC3)O4,1.69
16,CCN1CC2(COC(=O)c3ccccc3N3C(=O)CC(C)C3=O)CCC(OC)C34C5CC6C(OC)CC(O)(C5C6OC)C(O)(C(OC)C23)C14 (stereo unspecified),2.22
17,"CCCCCCCCCCCCCCC[C@@H]1CCC[C@@H](C)N1 [(2R,6R)-2-methyl-6-pentadecylpiperidine]",5.12

# More lines, now with the values ahead:
row,LC retention time [min],SMILES
1,6.97,C=C(C)C12CC(C)C34OC(CCCCCCCCCCCCC)(OC1C3C1OC1(CO)C(O)C1(O)C(=O)C(C)=CC14)O2 (stereo unspecified)
2,1.87,"COc1cc2ccc(=O)oc2cc1OC [6,7-dimethoxy-2H-chromen-2-one]"
3,6.96,CCCCCCCCCCCCCCCC(=O)OC12CC(C)C3(O)C(C4OC4(CO)C(O)C4(O)C(=O)C(C)=CC43)C1C2(C)C (stereo unspecified)
4,3.5,CC(=O)OCC1=C2C(OC(=O)/C=C(/C)COC(C)=O)CC(C)C(=O)CC(=O)C3(C)OC3C2OC1=O (stereo unspecified)
5,4.71,C=C1COC(=O)C12C[C@@]1(C)C([C@@H](OC(=O)/C=C/SC)CC[C@@H]1C)[C@H]2OC(=O)/C(C)=C\C (stereo partly specified)
6,1.59,COc1cc2c(cc1O)C(Cc1ccc(OC3=CC4(C=CC3=O)CC3c5c(cc(OC)c(OC)c54)CCN3C)cc1)N(C)CC2 (stereo unspecified)
7,1.14,COC1=CC(=O)C2(c3cc(=O)c4c(O)cc(O)cc4o3)C(CC=C(C)C2C[C@H]2[C@@H](C)[C@@H](O)C[C@H]3C(C)(C)C[C@H](O)C[C@]23C)C1=O (stereo partly specified)
8,6.07,CC(C)=CCCC(C)=CCC1=Cc2c(O)c3c(c(CC=C(C)C)c2OC1O)OC12C(=CC4CC1C(C)(C)OC2(CC=C(C)C(=O)O)C4=O)C3=O (stereo unspecified)
9,3.08,COc1ccc(-c2oc3cc(O)c(OC)c(O)c3c(=O)c2OC)cc1
10,5.46,C=C(C(=O)C(OC(C)=O)C(C)C1C(OC(C)=O)CC2(C)C3CCC4C(C)C(=O)C=CC45CC35CCC12C)C(C)C (stereo unspecified)
11,2.12,C=C1[C@@H](O)C[C@H]2C(C)(C)CCC[C@]2(C)[C@H]1CC1C(C)=CCC2C(=O)C(OC)=CC(=O)C21c1cc(=O)c2c(O)cc(O)cc2o1 (stereo partly specified)
12,2.27,COc1ccc2c3c(c4cc(OC)c(OC)cc4c2c1)CC1CCCN1C3 (stereo unspecified)
13,5.76,COc1c(O)c(OC)c(C(=O)C2CC=C(CCC=C(C)C)CC2c2ccccc2)c(O)c1OC (stereo unspecified)
14,0.92,CC1CC2CC3CCCC(=O)N3C3CCC(O)C(C1)N23 (stereo unspecified)
15,2.43,Cn1c(-c2ccc3c(c2)OCO3)cc(=O)c2ccccc21
16,4.6,C=C(C)C(CC=C(C)C)Cc1c(O)cc(OC)c2c1OC(c1ccc(O)cc1O)CC2=O (stereo unspecified)
17,2.78,"C=CCc1ccc(O)c(-c2cc(CC=C)ccc2O)c1 [5,5'-bis(prop-2-en-1-yl)-[1,1'-biphenyl]-2,2'-diol]"
18,4.7,COc1cc(O)c2c(c1)C(=O)c1cc(C)cc(O)c1C2=O

row,LC retention time [min],SMILES
1,5.56,C=C(C(=O)C(O)C(C)C1C(OC(C)=O)CC2(C)C3CCC4C(C)C(=O)C=CC45CC35CCC12C)C(C)C (stereo unspecified)
2,2.1,COc1cc(O)ccc1CCC(c1ccc(O)cc1)c1cc(CCC(=O)c2ccc(O)cc2)c(O)cc1O (stereo unspecified)
3,4.1,C=C(C(=O)C(O)C(C)C1C(OC(C)=O)CC2(C)C3CCC4C(C)C(=O)C=CC45CC35CCC12C)C(C)CO (stereo unspecified)
4,5.69,COc1c(O)c(C(=O)C2CC=C(CCC=C(C)C)CC2c2ccccc2)c(OC)c(OC)c1OC (stereo unspecified)
5,6.32,CCCCCCCCCCCCO[C@@H]1O[C@@H](C)[C@H](OC(C)=O)[C@@H](O[C@@H]2O[C@@H](C)[C@H](OC(C)=O)[C@@H](O[C@@H]3O[C@@H](C)[C@H](OC(C)=O)[C@@H](O)[C@H]3O)[C@H]2OC(C)=O)[C@H]1O
6,2.97,C=C(C)C(CCC(C)(C)O)Cc1c(O)cc(O)c2c1OC(c1ccc(O)cc1O)CC2=O (stereo unspecified)
7,5.4,CC(=O)O[C@@H](C[C@@H](C)C1=C2CC(O)C3[C@@]4(C)CCC(=O)C(C)(C)C4CC[C@]3(C)[C@@]2(C)CC1)[C@H]1OC1(C)C (stereo partly specified)
8,1.27,CC1=CC(C2OC3CCCN4C(C5CC(C)C(=O)O5)CCC4C3C2C)OC1=O (stereo unspecified)
9,4,CC1(C(=O)O)CCCC2(C)C3CCC4CC3(C=C4C=O)CCC12 (stereo unspecified)
10,0.287,COc1c(O)cc(-c2oc3cc(O)cc(O)c3c(=O)c2O[C@@H]2O[C@@H](C)[C@H](O)[C@@H](O)[C@H]2O)cc1O
11,4.77,COc1c(CC=C(C)C)c(O)c(CC=C(C)C)c(O)c1C(=O)c1ccc(O)cc1
12,2.95,C=C1[C@@H](O)C[C@@H]2[C@](C)(CCC[C@@]2(C)C(=O)O)[C@H]1CC1C(C)=CCC2C(=O)C(OC)=CC(=O)C21c1cc(=O)c2c(O)cc(O)cc2o1 (stereo partly specified)
13,3.58,COc1c(O)c(O)c(-c2c(O)c(O)c(OC)c3oc4ccccc4c23)c2c1oc1ccccc12
14,4.97,CC(=O)OC(CCc1ccccc1)Cc1cc(=O)c2c(o1)OC1(C)CCC(C(C)C)C2C1 (stereo unspecified)
15,0.266,C[C@@H]1O[C@@H](Oc2c(-c3ccc(O)c(O)c3)oc3cc(O)cc(O)c3c2=O)[C@H](O)[C@H](O)[C@H]1O
16,6.11,CCC(C)C(=O)C1=C(O)C2(CC=C(C)C)CC(CCC(C)(C)OC(=O)C(F)(F)F)C(C)(C)C(C(CC(=O)O)c3ccccc3)=C2OC1=O (stereo unspecified)
17,3.6,CC1=C2CC3(C)C(C)CCCC3CC2(O)OC1=O (stereo unspecified)
18,3.15,O=C(/C=C/c1ccc(O)cc1)OC[C@H]1O[C@@H](Oc2cc(O)c3c(=O)cc(-c4ccc(O)cc4)oc3c2)[C@H](OC(=O)/C=C/c2ccc(O)cc2)[C@@H](O)[C@@H]1O
